We go through 122 compounds from a melting point compilation (Tetko et al.).

In turn, `Cc1ccc(OC(F)F)c(C(=O)CBr)c1` had a melting point of 55 to 57 °C. The compound `Nn1ccccc1=O` yielded a melting point of 41 to 43 °C.

In the case of `CC(=O)Nc1cc(N)ccc1F`, the melting point fell in the range of 134 to 136 °C.

`CC(C)Cc1nnc(N)s1` showed a melting point of 239 to 241 °C. Take `CCOc1ccc(C(C)=O)cc1CN1CCOCC1`: the melting point was 33 to 37 °C.

The compound `O=C(O)c1nc(-c2ccccc2)n(-c2ccccc2)n1` returned a melting point of 177 to 181 °C. For `CC(Cl)C(=O)Nc1sc2c(c1C#N)CCC2` (configuration not stated) the value was 204 to 206 °C. With `O=C(CCCl)Nc1ccc(S(=O)(=O)N2CCCC2)cc1` the figure was 174 to 176 °C; with `CCS(=O)(=O)NC(C)C(=O)O` (configuration not stated), 129 to 131 °C. Compound `O=C(O)c1cccc(Nc2ncccn2)c1` gave a melting point of 270 to 272 °C.

With `ClCc1coc(-c2ccc(I)cc2)n1`, the melting point was in the range of 129 to 131 °C. Regarding `Cc1cc(S(N)(=O)=O)c(C)s1`, the melting point was 139 to 141 °C.

Consider `O=C(O)CCCCc1ccc(Br)cc1`, for which the melting point was 90 to 92 °C. As for `O=C(O)c1ccc(I)cc1Cl`, the melting point lay in the range of 159 to 161 °C. Compound `Cc1ccc(C(=O)O)cc1S(=O)(=O)NC1CCCC1` returned a melting point of 185 to 187 °C. `COc1ccc(C(N)C(=O)O)cc1OC` (configuration not stated) displayed a melting point of 218 to 220 °C.

The compound `CC(C)(C)CS(N)(=O)=O` displayed a melting point of 119 to 121 °C. `Cc1nc(C=O)c2ccccn12`: the melting point lay in the range of 115 to 117 °C. With `COc1ncc(Cl)c(Cl)n1` the figure was 43 to 45 °C; with `Cc1nc(-c2ccco2)ccc1C(=O)O`, 174 to 176 °C.

Regarding `O=C(O)CN1CCC(=O)NC1=O`, the melting point was in the range of 197 to 199 °C. In turn, `O=C(O)CCc1ccc2ccccc2c1` returned a melting point of 135 to 137 °C.

`COc1ccc(-c2nn(-c3ccccc3)cc2CCl)cc1`: the melting point was 89 to 91 °C. For `N=c1[nH]cnn1-c1ccccc1`, the melting point fell in the range of 148 to 150 °C.

As for `N#Cc1ccccc1COc1ccc(C(=O)O)cc1`, the melting point lay within 211 to 213 °C. On to `O=C1C=CC(=O)N1c1ccccc1Sc1ccccc1`, for which the melting point lay in the range of 51 to 53 °C.

Regarding `Nc1nc(-c2ccccc2)c(-c2ncc[nH]2)s1`, the melting point fell in the range of 256 to 258 °C. Consider `NC(=S)C1CN2CCCC2CO1` (configuration not stated), for which the melting point was in the range of 146 to 148 °C. With `COc1ccc(-c2noc(CCC(=O)O)n2)cc1` the figure was 141 to 143 °C; with `NNC(=O)CNc1ccccc1`, 126 to 128 °C. Compound `CCc1cccc(CC)c1NC(=O)C(C)Cl` (configuration not stated) returned a melting point of 166 to 168 °C. With `Cn1ccnc(N)c1=O` the figure was 162 to 164 °C; with `CC(C)(C)c1ccc(C(=O)O)cc1[N+](=O)[O-]`, 156 to 158 °C. `CC(CSc1ccccc1)C(=O)O` (configuration not stated) displayed a melting point of 40 to 42 °C.

The compound `O=C1c2ccc(S(=O)(=O)Cl)cc2CCC1Cl` (configuration not stated) yielded a melting point of 124 to 126 °C. Take `Nc1ccc(Oc2cc(Cl)ccc2Cl)c(F)c1`: the melting point was in the range of 62 to 64 °C. Compound `COc1ccc(S(=O)(=O)N(C)C)cc1NC(=O)C(C)Cl` (configuration not stated) returned a melting point of 107 to 109 °C.

`NC(=S)Nc1ccccc1OC(F)(F)F` displayed a melting point of 156 to 158 °C. With `O=Cc1ccc(-n2ccnc2)nc1`, the melting point was 139 to 141 °C. In turn, `O=C(O)c1cc(F)ccc1-c1ccccc1` returned a melting point of 117 to 119 °C. `O=C(CCl)NC1CCN(Cc2ccccc2)CC1` yielded a melting point of 117 to 119 °C.

`O=C(O)C(F)(F)c1ccc(Cl)c(Cl)c1` displayed a melting point of 109 to 111 °C. The compound `COc1ccc(Br)cc1CCC(=O)O` registered a melting point of 116 to 118 °C. `Cc1noc(C)c1S(=O)(=O)NC(C)C(=O)O` (configuration not stated) showed a melting point of 135 to 137 °C. `CN(C)CCCNC(=O)c1cccnc1Cl` returned a melting point of 97 to 101 °C. For `Nc1nc(-c2cccc(C(F)(F)F)c2)n[nH]1` the value was 221 to 223 °C; for `NC(=O)COc1ccc(/C=C/C(=O)O)cc1`, 295 to 297 °C. `CCn1cc(C(=O)O)cn1` came in with a melting point of 144 to 146 °C.

In the case of `CCCCCCOc1ccc(CO)cc1`, the melting point was 32 to 34 °C. As for `O=C1NCc2ccccc2N1CCO`, the melting point lay in the range of 107 to 109 °C.

For the compound `CC(C)(C)C(=O)C=Cc1ccc(Br)s1`, the melting point was in the range of 44 to 46 °C.

In turn, `Nc1ccc(CN2CCOCC2)cn1` registered a melting point of 119 to 121 °C.

As to `Cc1cc(F)ccc1S(=O)(=O)Nc1ccc(C(=O)O)cc1`, the melting point was in the range of 199 to 201 °C.

In the case of `COc1ccccc1C=NO`, the melting point was 86 to 88 °C. With `CC(=O)N1CCN(Cc2cccc(N)n2)CC1`, the melting point lay in the range of 169 to 171 °C. `O=C(CCl)NN1C(=O)NC2(CCCCC2)C1=O` came in with a melting point of 105 to 107 °C.

`O=C(O)C1(c2cccc(Cl)c2)CCCC1` showed a melting point of 150 to 152 °C. For `Cc1ccc(-n2nnc(C(=O)O)c2C2CC2)cc1` the value was 173 to 175 °C; for `COc1ccc(CCl)cc1S(C)(=O)=O`, 118 to 120 °C. In turn, `O=C(O)CNS(=O)(=O)c1ccc2c(c1)nnn2O` returned a melting point of 229 to 231 °C. As to `O=C(O)CCCSc1nc2ccccc2[nH]1`, the melting point lay in the range of 120 to 122 °C. With `NC(=O)c1ccsc1N` the figure was 160 to 162 °C; with `O=C1Cc2ccc(Br)cc2N1`, 216 to 220 °C; with `CC(C)C(NC(=O)c1ccc(Br)cc1)C(=O)O` (configuration not stated), 189 to 191 °C. For `COC(=O)c1cc(F)cc(I)c1N` the value was 52 to 54 °C.

Consider `CS(=O)(=O)OC1CCOC2(CCOCC2)C1` (configuration not stated), for which the melting point lay within 110 to 112 °C. `CC(C)c1nccc(O)n1` returned a melting point of 239 to 241 °C. `NS(=O)(=O)c1cc(C(=O)O)co1`: the melting point was in the range of 176 to 178 °C. `O=C(O)c1cc2ccccc2nc1N1CCCC1` displayed a melting point of 169 to 171 °C.

The compound `Nc1cc(-c2ccc(Cl)cc2)no1` had a melting point of 164 to 166 °C. Regarding `CN(c1ccccc1)S(=O)(=O)c1ccccc1C(=O)O`, the melting point was in the range of 136 to 138 °C.

In the case of `CCOC(=O)Nc1nc2ccc(N)cc2s1`, the melting point is 339 to 341 °C. For `CC(Cl)C(=O)NCC(=O)c1ccccc1` (configuration not stated) the value was 86 to 88 °C.

`Cn1cc(S(=O)(=O)NN)c(=O)n(C)c1=O` displayed a melting point of 134 to 136 °C. With `O=C(O)c1csc(C(=O)CCl)c1` the figure was 147 to 149 °C.

Turning to `CC(=O)Nc1cccc(CCl)c1`, the melting point lay in the range of 83 to 85 °C.

In turn, `N#CCc1nc2cc(C(F)(F)F)ccc2s1` registered a melting point of 95 to 97 °C. Compound `CC(C)(C)OC(=O)N1CCOCC1C#N` (configuration not stated) returned a melting point of 95 to 97 °C. On to `Cc1ccc(C(C)C)c(Oc2ccc(C=O)cc2[N+](=O)[O-])c1`, for which the melting point was 109 to 111 °C.

With `O=C(O)Cc1cc(=O)[nH]c(=O)[nH]1`, the melting point lay within 324 to 326 °C. Compound `Brc1nnc(Br)s1` displayed a melting point of 104 to 106 °C. With `Nc1sc2c(c1-c1nc3ccccc3s1)CCCC2` the figure was 100 to 104 °C.

The compound `O=C1CCC(C(F)(F)F)=NN1` gave a melting point of 75 to 77 °C. With `O=C(O)c1cccc(-c2ncon2)c1` the figure was 175 to 177 °C; with `Cc1cc2cc(F)ccc2[nH]1`, 98 to 101 °C. As to `CC(Oc1ccc(Cl)cc1)C(=O)O` (configuration not stated), the melting point was in the range of 111 to 113 °C. Compound `NNC(=O)c1cc2c(s1)CCCCC2` came in with a melting point of 253 to 255 °C.

Consider `Cc1nn(C)c2sc(C(=O)NC(C)C(=O)O)cc12` (configuration not stated), for which the melting point fell in the range of 269 to 271 °C. Take `COC(=O)CCCCCNC(N)=S`: the melting point lay within 84 to 86 °C.

The compound `O=C(O)Cn1cn[nH]c1=O` showed a melting point of 217 to 219 °C. `C#CCOc1cccc(C#N)c1` registered a melting point of 61 to 63 °C.

`CC(NC(=O)c1ccccc1Cl)C(=O)O` (configuration not stated) showed a melting point of 137 to 139 °C. As for `COc1ccc(-c2nc(CC(=O)O)cs2)cc1`, the melting point lay within 109 to 111 °C.

Take `O=C(NC1CCCNC1)c1ccccc1` (configuration not stated): the melting point fell in the range of 130 to 132 °C. `CN(C)C(=O)c1cnc(Cl)c(Cl)c1`: the melting point was 89 to 91 °C.

For the compound `CCCC(C)S(N)(=O)=O` (configuration not stated), the melting point is 48 to 50 °C.

Regarding `COC(=O)c1cccc(-c2nc(C)cs2)c1`, the melting point was in the range of 52 to 54 °C. Take `O=C(O)c1cc(-c2ccccn2)nc2ccccc12`: the melting point was 297 to 299 °C. `COC(=O)c1ccc(-c2nc(C)cs2)cc1` showed a melting point of 81 to 83 °C.

In turn, `Cc1nn(-c2cccc(Cl)c2)c2ncc(Br)cc12` registered a melting point of 114 to 116 °C. Regarding `CNC(=O)c1cc(Oc2cccc(O)c2C)ccn1`, the melting point fell in the range of 179 to 181 °C. Compound `Nc1ccc2c(c1)C(=O)NC2` yielded a melting point of 237 to 239 °C. For `O=C(O)[C@@H]1CCCN1C(=O)Nc1ccc2c(c1)OCCO2`, the melting point was 176 to 178 °C. With `COC(=O)c1ccc(NC(=O)Oc2ccccc2)cc1` the figure was 185 to 187 °C; with `CS(=O)(=O)c1ccc(C(=O)Nc2c(Cl)cc(N)cc2Cl)cc1`, 238 to 240 °C. For `Nc1ccc(Cl)c(-c2nnc3n2CCCCC3)c1`, the melting point is 284 to 286 °C. For `COC(=O)c1ccc(CN2C(=O)CSC2=O)cc1` the value was 117 to 119 °C; for `Cc1ccc(S(=O)(=O)Cl)cc1C`, 36 to 38 °C; for `CC(C)COc1ccc(C2(C(=O)O)CCC2)cc1`, 105 to 107 °C. `O=C1NC2(CCCCC2)C(=O)N1Cc1ccccc1` registered a melting point of 151 to 153 °C.

`CCOC(=O)CNC(=O)OCC(F)(F)F` displayed a melting point of 38 to 40 °C. In turn, `Cc1ccc(S(=O)(=O)Cl)c(Br)c1` registered a melting point of 70 to 72 °C. Compound `Cc1ccccc1C1CC1C(=O)O` (configuration not stated) had a melting point of 64 to 66 °C.

The compound `Nc1ccc(OCc2ccccc2)nc1` displayed a melting point of 42 to 44 °C.

On to `NC(=O)CSc1ccccc1NC(=O)CCl`, for which the melting point lay within 129 to 131 °C. For `Cc1sc2nc(-c3ccccc3)nc(Cl)c2c1C` the value was 157 to 159 °C; for `Nc1ccc(Oc2ccc(CO)cc2)cc1`, 79 to 81 °C. In the case of `CS(=O)(=O)c1ccc(NC(=O)OCC(F)(F)F)cc1`, the melting point fell in the range of 175 to 177 °C. For `COc1cc(OC)c2c(Cl)ccnc2c1`, the melting point lay within 92 to 94 °C. The compound `COC(=O)c1c(O)cc(=O)n2c1CCCCC2` registered a melting point of 222 to 224 °C. Turning to `COCCOc1ccc(C#N)cc1`, the melting point lay in the range of 44 to 46 °C.

`N#CC1=C(N)N2Cc3ccccc3CC2C1=O` (configuration not stated) returned a melting point of 307 to 309 °C.
